BigSolDB 2.1

## O=C(O)c1cc(=O)[nH]c(=O)[nH]1
In DMF, 278.15 K
  solubility (mole fraction): 0.00242
In DMF, 283.15 K
  solubility (mole fraction): 0.00305
In DMF, 288.15 K
  solubility (mole fraction): 0.00382
In DMF, 293.15 K
  solubility (mole fraction): 0.00473
In DMF, 298.15 K
  solubility (mole fraction): 0.00578
In DMF, 303.15 K
  solubility (mole fraction): 0.0071
In DMF, 308.15 K
  solubility (mole fraction): 0.00861
In DMF, 313.15 K
  solubility (mole fraction): 0.0108
In DMF, 318.15 K
  solubility (mole fraction): 0.0132
In DMF, 323.15 K
  solubility (mole fraction): 0.0157
In DMSO, 293.15 K
  solubility (mole fraction): 0.0326
In DMSO, 298.15 K
  solubility (mole fraction): 0.0394
In DMSO, 303.15 K
  solubility (mole fraction): 0.0472
In DMSO, 308.15 K
  solubility (mole fraction): 0.0563
In DMSO, 313.15 K
  solubility (mole fraction): 0.0665
In DMSO, 318.15 K
  solubility (mole fraction): 0.0781
In DMSO, 323.15 K
  solubility (mole fraction): 0.0911
In THF, 278.15 K
  solubility (mole fraction): 7.26e-05
In THF, 283.15 K
  solubility (mole fraction): 8.12e-05
In THF, 288.15 K
  solubility (mole fraction): 9.02e-05
In THF, 293.15 K
  solubility (mole fraction): 0.0001
In THF, 298.15 K
  solubility (mole fraction): 0.000112
In THF, 303.15 K
  solubility (mole fraction): 0.000125
In THF, 308.15 K
  solubility (mole fraction): 0.000138
In THF, 313.15 K
  solubility (mole fraction): 0.000151
In THF, 318.15 K
  solubility (mole fraction): 0.000167
In THF, 323.15 K
  solubility (mole fraction): 0.000185
In acetone, 278.15 K
  solubility (mole fraction): 9.3e-06
In acetone, 283.15 K
  solubility (mole fraction): 1.06e-05
In acetone, 288.15 K
  solubility (mole fraction): 1.22e-05
In acetone, 293.15 K
  solubility (mole fraction): 1.37e-05
In acetone, 298.15 K
  solubility (mole fraction): 1.56e-05
In acetone, 303.15 K
  solubility (mole fraction): 1.76e-05
In acetone, 308.15 K
  solubility (mole fraction): 1.95e-05
In acetone, 313.15 K
  solubility (mole fraction): 2.21e-05
In acetone, 318.15 K
  solubility (mole fraction): 2.49e-05
In acetone, 323.15 K
  solubility (mole fraction): 2.78e-05
In ethanol, 278.15 K
  solubility (mole fraction): 1.71e-05
In ethanol, 283.15 K
  solubility (mole fraction): 1.9e-05
In ethanol, 288.15 K
  solubility (mole fraction): 2.09e-05
In ethanol, 293.15 K
  solubility (mole fraction): 2.32e-05
In ethanol, 298.15 K
  solubility (mole fraction): 2.57e-05
In ethanol, 303.15 K
  solubility (mole fraction): 2.86e-05
In ethanol, 308.15 K
  solubility (mole fraction): 3.17e-05
In ethanol, 313.15 K
  solubility (mole fraction): 3.48e-05
In ethanol, 318.15 K
  solubility (mole fraction): 3.88e-05
In ethanol, 323.15 K
  solubility (mole fraction): 4.32e-05
In ethyl acetate, 278.15 K
  solubility (mole fraction): 1.1e-06
In ethyl acetate, 283.15 K
  solubility (mole fraction): 1.2e-06
In ethyl acetate, 288.15 K
  solubility (mole fraction): 1.2e-06
In ethyl acetate, 293.15 K
  solubility (mole fraction): 1.3e-06
In ethyl acetate, 298.15 K
  solubility (mole fraction): 1.4e-06
In ethyl acetate, 303.15 K
  solubility (mole fraction): 1.5e-06
In ethyl acetate, 308.15 K
  solubility (mole fraction): 1.6e-06
In ethyl acetate, 313.15 K
  solubility (mole fraction): 1.8e-06
In ethyl acetate, 318.15 K
  solubility (mole fraction): 1.9e-06
In ethyl acetate, 323.15 K
  solubility (mole fraction): 2e-06
In isopropanol, 278.15 K
  solubility (mole fraction): 1e-05
In isopropanol, 283.15 K
  solubility (mole fraction): 1.32e-05
In isopropanol, 288.15 K
  solubility (mole fraction): 1.72e-05
In isopropanol, 293.15 K
  solubility (mole fraction): 2.12e-05
In isopropanol, 298.15 K
  solubility (mole fraction): 2.67e-05
In isopropanol, 303.15 K
  solubility (mole fraction): 3.36e-05
In isopropanol, 308.15 K
  solubility (mole fraction): 4.18e-05
In isopropanol, 313.15 K
  solubility (mole fraction): 5.2e-05
In isopropanol, 318.15 K
  solubility (mole fraction): 6.37e-05
In isopropanol, 323.15 K
  solubility (mole fraction): 7.71e-05
In methanol, 278.15 K
  solubility (mole fraction): 4.44e-05
In methanol, 283.15 K
  solubility (mole fraction): 5.24e-05
In methanol, 288.15 K
  solubility (mole fraction): 6.13e-05
In methanol, 293.15 K
  solubility (mole fraction): 7.19e-05
In methanol, 298.15 K
  solubility (mole fraction): 8.42e-05
In methanol, 303.15 K
  solubility (mole fraction): 9.82e-05
In methanol, 308.15 K
  solubility (mole fraction): 0.000115
In methanol, 313.15 K
  solubility (mole fraction): 0.000135
In methanol, 318.15 K
  solubility (mole fraction): 0.000157
In methanol, 323.15 K
  solubility (mole fraction): 0.000184
In methyl acetate, 278.15 K
  solubility (mole fraction): 8.8e-06
In methyl acetate, 283.15 K
  solubility (mole fraction): 9.4e-06
In methyl acetate, 288.15 K
  solubility (mole fraction): 1.03e-05
In methyl acetate, 293.15 K
  solubility (mole fraction): 1.15e-05
In methyl acetate, 298.15 K
  solubility (mole fraction): 1.21e-05
In methyl acetate, 303.15 K
  solubility (mole fraction): 1.31e-05
In methyl acetate, 308.15 K
  solubility (mole fraction): 1.41e-05
In methyl acetate, 313.15 K
  solubility (mole fraction): 1.53e-05
In methyl acetate, 318.15 K
  solubility (mole fraction): 1.64e-05
In methyl acetate, 323.15 K
  solubility (mole fraction): 1.76e-05
In n-butanol, 278.15 K
  solubility (mole fraction): 1.47e-05
In n-butanol, 283.15 K
  solubility (mole fraction): 1.72e-05
In n-butanol, 288.15 K
  solubility (mole fraction): 2.12e-05
In n-butanol, 293.15 K
  solubility (mole fraction): 2.53e-05
In n-butanol, 298.15 K
  solubility (mole fraction): 2.97e-05
In n-butanol, 303.15 K
  solubility (mole fraction): 3.5e-05
In n-butanol, 308.15 K
  solubility (mole fraction): 4.06e-05
In n-butanol, 313.15 K
  solubility (mole fraction): 4.88e-05
In n-butanol, 318.15 K
  solubility (mole fraction): 5.67e-05
In n-butanol, 323.15 K
  solubility (mole fraction): 6.63e-05
In n-propanol, 278.15 K
  solubility (mole fraction): 2.24e-05
In n-propanol, 283.15 K
  solubility (mole fraction): 2.57e-05
In n-propanol, 288.15 K
  solubility (mole fraction): 3e-05
In n-propanol, 293.15 K
  solubility (mole fraction): 3.42e-05
In n-propanol, 298.15 K
  solubility (mole fraction): 3.97e-05
In n-propanol, 303.15 K
  solubility (mole fraction): 4.61e-05
In n-propanol, 308.15 K
  solubility (mole fraction): 5.31e-05
In n-propanol, 313.15 K
  solubility (mole fraction): 6.09e-05
In n-propanol, 318.15 K
  solubility (mole fraction): 7.17e-05
In n-propanol, 323.15 K
  solubility (mole fraction): 8.18e-05
In water, 278.15 K
  solubility (mole fraction): 4.57e-05
In water, 283.15 K
  solubility (mole fraction): 5.22e-05
In water, 288.15 K
  solubility (mole fraction): 5.97e-05
In water, 293.15 K
  solubility (mole fraction): 6.68e-05
In water, 298.15 K
  solubility (mole fraction): 7.56e-05
In water, 303.15 K
  solubility (mole fraction): 8.5e-05
In water, 308.15 K
  solubility (mole fraction): 9.5e-05
In water, 313.15 K
  solubility (mole fraction): 0.000107
In water, 318.15 K
  solubility (mole fraction): 0.000121
In water, 323.15 K
  solubility (mole fraction): 0.000136
